Experimental findings from article PMC9607427, “Novel 7-Chloro-(4-thioalkylquinoline) Derivatives: Synthesis and Antiproliferative Activity through Inducing Apoptosis and DNA/RNA Damage” (Pharmaceuticals, 2022) are described below.

Test [1] concerns CCRF-CEM lymphoblasts. Nature of the test: BrDU incorporation analysis (DNA synthesis). The settings on record: 24 h, 5 × IC50 (second value of cell). In kind it is cell-based, human. How it is done:
The effect of compounds on cell cycle distribution was determined to gain insights into the mechanism of its antiproliferative activity. […] For example, as compared with control, the percentage of cells in G2/M phases was increased by treatment with 5 × IC50 μM of compounds for 24 h (Table 4). […] As shown in (Table 4), there was a marked increase in the sub-G1 from 2.91 in untreated cells. 5-Bromo-2-deoxyuridine (BrDU) is incorporated into newly synthesized DNA, and 5-bromouridine (BrU) pulse labeling is therefore commonly used as a proliferation marker. Low BrDU and BrU incorporation into the DNA or RNA, respectively, of treated cells with all compounds at 5 × IC50 reflected inhibition of DNA and RNA synthesis, indicating irreversible apoptotic changes. The percentage of […] cells incorporating 5-bromouridine is proportional to the transcriptional activity of CCRF-CEM cells. Cells were cultivated and processed as described in the previous method. Before harvesting, BrDU 10 µM was added to the cells for pulse-labeling for 30 min. Then, cells were washed by PBS and fixed with −20 °C cold 70% ethanol and stored in a freezer overnight. Before analysis, the samples were incubated on ice for 30 min, washed once with PBS, and re-suspended in 2 M HCl for 30 min at rt to denature their DNA. Following neutralization with a 0.1 M Na2B4O7 (borax) solution, the cells were washed with PBS containing 0.5% Tween-20 and 1% BSA. Next, staining with primary anti-BrDU antibody (Exbio) was performed for 30 min at rt in the dark. Cells were then washed with PBS and stained with secondary anti-mouse-FITC antibody (Sigma) at rt in the dark. After another wash with PBS and incubation with propidium iodide (0.1 mg × mL^−1) and RNase A (0.5 mg × mL^−1) for 1 h at rt in the dark, cells were analyzed by flow cytometry using a 488 nm single beam laser (FACSCalibur, Becton Dickinson, Franklin Lakes, NJ, USA).

Test [2] concerns CCRF-CEM lymphoblasts. Nature of the test: Cell cycle and apoptosis analysis (propidium iodide flow cytometry). In kind it is cell-based, human. Conditions: 24 h. How it is done: On the other hand, we wanted to find out whether compounds 48–50, 53, 54, 57, 59–63, 65–70, and 72 can stop the cell cycle of cancer cells, as it has been previously reported for chloroquine. For a more detailed description of the biological activity of the studied derivatives, we performed a cell cycle analysis of the most sensitive CCRF-CEM cells after 24 h of incubation with the novel 7-chloro-(4-thioalkylquinoline) derivatives (Table 4).
The effect of compounds on cell cycle distribution was determined to gain insights into the mechanism of its antiproliferative activity. […] For example, as compared with control, the percentage of cells in G2/M phases was increased by treatment with 5 × IC50 μM of compounds for 24 h (Table 4). […] As shown in (Table 4), there was a marked increase in the sub-G1 from 2.91 in untreated cells. 5-Bromo-2-deoxyuridine (BrDU) is incorporated into newly synthesized DNA, and 5-bromouridine (BrU) pulse labeling is therefore commonly used as a proliferation marker. Low BrDU and BrU incorporation into the DNA or RNA, respectively, of treated cells with all compounds at 5 × IC50 reflected inhibition of DNA and RNA synthesis, indicating irreversible apoptotic changes. The percentage of […] cells incorporating 5-bromouridine is proportional to the transcriptional activity of CCRF-CEM cells.
CCRF-CEM cells were seeded at a density of 1 × 10^6 cells per one mL in 6-well plates (TTP) and were cultivated with compounds at concentrations corresponding to 1 × or 5 × IC50 value. Together with the compounds-treated cells, a vehicle-treated sample was harvested at the same time point. After 24 h, the cells were washed with cold phosphate-buffered saline (PBS) and fixed in 70% ethanol added dropwise and stored overnight at −20 °C. Afterward, cells were washed in hypotonic citrate buffer, treated with RNase (50 µg mL^−1), and stained with propidium iodide. Flow cytometry using a 488 nm single beam laser (Becton Dickinson) was used for measurement. The cell cycle was analyzed by the software ModFitLT (Verity), and apoptosis was measured in a logarithmic model expressing the percentage of the particles with propidium content lower than cells in the G0/G1 phase (<G1) of the cell cycle. Half of the sample was used for pH3Ser10 antibody (Sigma) labeling and subsequent flow cytometry analysis of the cells in mitosis.
Background: In flow cytometry, cells or beads pass a laser one at a time.

Where [3] appears, read: 5 × IC50 (second value of cell).

`COc1ccc(C(=O)OCCS(=O)(=O)c2cc[n+]([O-])c3cc(Cl)ccc23)cc1` [Compound 63, 2-[(N-Oxide 7-chloroquinolin-4-yl)sulfonyl]ethyl-4-methoxybenzoate]: the “DNA Synthesis (% positive of cells)” value in the test with CCRF-CEM lymphoblasts [1] is 13.54%. Besides, in the test with CCRF-CEM lymphoblasts [2] (1 × IC50 (first value of cell)), the “>G2/M, % of Total Cellular Populations” value is reported as 8.56%; the “G0/G1, % of Total Cellular Populations” value was determined as 42.76%; the “G2/M, % of Total Cellular Populations” value turned out to be 16.81%; the “S, % of Total Cellular Populations” value came out at 40.42%. Besides, in the test with CCRF-CEM lymphoblasts [2] (1 × IC50 (first value of cell)), the “Sub-G1 Apoptosis, % of Total Cellular Populations” value (from here on “Sub-G1 Apoptosis, %”) is 3.41%. In the test on CCRF-CEM lymphoblasts [2] (setting [3]), the “>G2/M, % of Total Cellular Populations” value is given as 11.38%; the “G0/G1, % of Total Cellular Populations” value came out at 34.13%; the “G2/M, % of Total Cellular Populations” value is on record as 17.88%; the “S, % of Total Cellular Populations” value was 47.99%. In the test with CCRF-CEM lymphoblasts [2] (setting [3]), the “Sub-G1 Apoptosis, %” value amounted to 12.97%.

As to `COc1ccc(OC)c(C(=O)OCCS(=O)(=O)c2cc[n+]([O-])c3cc(Cl)ccc23)c1` [Compound 65, 2-[(N-Oxide 7-chloroquinolin-4-yl)sulfonyl]ethyl-2,5-dimethoxybenzoate], in the test on CCRF-CEM lymphoblasts [1], the “DNA Synthesis (% positive of cells)” value came to 19.73%. Besides, in the test with CCRF-CEM lymphoblasts [2] (1 × IC50 (first value of cell)), the “>G2/M, % of Total Cellular Populations” value was 7.55%; the “G0/G1, % of Total Cellular Populations” value came out at 40.82%; the “G2/M, % of Total Cellular Populations” value is 20.04%; the “S, % of Total Cellular Populations” value is reported as 39.14%. The “Sub-G1 Apoptosis, %” value with CCRF-CEM lymphoblasts [2] (1 × IC50 (first value of cell)) turned out to be 17.77%. In addition, in the test on CCRF-CEM lymphoblasts [2] (setting [3]), the “>G2/M, % of Total Cellular Populations” value turned out to be 7.13%; the “G0/G1, % of Total Cellular Populations” value was found to be 47.21%; the “G2/M, % of Total Cellular Populations” value was 19.99%; the “S, % of Total Cellular Populations” value is listed as 32.8%. For the same compound, in the test with CCRF-CEM lymphoblasts [2] (setting [3]), the “Sub-G1 Apoptosis, %” value worked out at 8.67%.

On to `COc1cc(OC)c(C(=O)OCCS(=O)(=O)c2cc[n+]([O-])c3cc(Cl)ccc23)cc1OC` [Compound 66, 2-[(N-Oxide 7-chloroquinolin-4-yl)sulfonyl]ethyl-2,4,5-trimethoxybenzoate], for which the “DNA Synthesis (% positive of cells)” value with CCRF-CEM lymphoblasts [1] came to 9.68%. For the same compound, in the test with CCRF-CEM lymphoblasts [2] (1 × IC50 (first value of cell)), the “>G2/M, % of Total Cellular Populations” value is 10.42%; the “G0/G1, % of Total Cellular Populations” value is on record as 39.53%; the “G2/M, % of Total Cellular Populations” value is on record as 16.6%; the “Sub-G1 Apoptosis, %” value is given as 2.95%. In addition, in the test with CCRF-CEM lymphoblasts [2] (setting [3]), the “>G2/M, % of Total Cellular Populations” value came out at 10.45%; the “G0/G1, % of Total Cellular Populations” value came to 48.53%; the “G2/M, % of Total Cellular Populations” value stood at 26.56%; the “S, % of Total Cellular Populations” value is listed as 24.9%. For the same compound, in the test with CCRF-CEM lymphoblasts [2] (setting [3]), the “Sub-G1 Apoptosis, %” value was determined as 11.72%.

In the case of `COc1ccccc1C(=O)OCCS(=O)(=O)c1cc[n+]([O-])c2cc(Cl)ccc12` [Compound 68, 2-[(N-Oxide 7-chloroquinolin-4-yl)sulfonyl]ethyl-2-methoxybenzoate], the “DNA Synthesis (% positive of cells)” value in the test on CCRF-CEM lymphoblasts [1] is recorded as 7.18%. Besides, in the test on CCRF-CEM lymphoblasts [2] (1 × IC50 (first value of cell)), the “>G2/M, % of Total Cellular Populations” value stood at 9.87%; the “G0/G1, % of Total Cellular Populations” value came out at 35.73%; the “G2/M, % of Total Cellular Populations” value is 18.54%; the “S, % of Total Cellular Populations” value is 45.73%. Also, the “Sub-G1 Apoptosis, %” value in the test on CCRF-CEM lymphoblasts [2] (1 × IC50 (first value of cell)) was 2.71%. In the test with CCRF-CEM lymphoblasts [2] (setting [3]), the “>G2/M, % of Total Cellular Populations” value came to 9.65%; the “G0/G1, % of Total Cellular Populations” value is 48.5%; the “G2/M, % of Total Cellular Populations” value is 19.64%; the “S, % of Total Cellular Populations” value was found to be 31.86%. In addition, in the test on CCRF-CEM lymphoblasts [2] (setting [3]), the “Sub-G1 Apoptosis, %” value was 7.16%.

`COc1ccc(C(=O)OCCS(=O)(=O)c2cc[n+]([O-])c3cc(Cl)ccc23)cc1[N+](=O)[O-]` [Compound 69, 2-[(N-Oxide 7-chloroquinolin-4-yl)sulfonyl]ethyl-4-methoxy-3-nitrobenzoate]: the “DNA Synthesis (% positive of cells)” value with CCRF-CEM lymphoblasts [1] is recorded as 4.22%. In addition, in the test on CCRF-CEM lymphoblasts [2] (1 × IC50 (first value of cell)), the “>G2/M, % of Total Cellular Populations” value is recorded as 8.58%; the “G0/G1, % of Total Cellular Populations” value amounted to 43.48%; the “G2/M, % of Total Cellular Populations” value is 20.83%; the “S, % of Total Cellular Populations” value is listed as 35.7%. In addition, the “Sub-G1 Apoptosis, %” value in the test on CCRF-CEM lymphoblasts [2] (1 × IC50 (first value of cell)) came out at 3.3%. In the test with CCRF-CEM lymphoblasts [2] (setting [3]), the “>G2/M, % of Total Cellular Populations” value was 12.52%; the “G0/G1, % of Total Cellular Populations” value was 38.16%; the “G2/M, % of Total Cellular Populations” value was 19.27%; the “S, % of Total Cellular Populations” value is 42.58%. The “Sub-G1 Apoptosis, %” value in the test with CCRF-CEM lymphoblasts [2] (setting [3]) amounted to 13.89%.

On to `Cc1ccc([N+](=O)[O-])c(C(=O)OCCS(=O)(=O)c2cc[n+]([O-])c3cc(Cl)ccc23)c1` [Compound 70, 2-[(N-Oxide 7-chloroquinolin-4-yl)sulfonyl]ethyl-5-methyl-2-nitrobenzoate], for which, in the test with CCRF-CEM lymphoblasts [1], the “DNA Synthesis (% positive of cells)” value is 4.88%. For the same compound, in the test with CCRF-CEM lymphoblasts [2] (1 × IC50 (first value of cell)), the “>G2/M, % of Total Cellular Populations” value is reported as 10.54%; the “G0/G1, % of Total Cellular Populations” value was 39.54%; the “G2/M, % of Total Cellular Populations” value was 21.99%; the “S, % of Total Cellular Populations” value was 38.46%. The “Sub-G1 Apoptosis, %” value in the test on CCRF-CEM lymphoblasts [2] (1 × IC50 (first value of cell)) came out at 3.21%. Also, in the test with CCRF-CEM lymphoblasts [2] (setting [3]), the “>G2/M, % of Total Cellular Populations” value was 10.33%; the “G0/G1, % of Total Cellular Populations” value came out at 33.44%; the “G2/M, % of Total Cellular Populations” value is 23.25%; the “S, % of Total Cellular Populations” value stood at 43.31%. Besides, the “Sub-G1 Apoptosis, %” value in the test with CCRF-CEM lymphoblasts [2] (setting [3]) is given as 13.75%.

Regarding `O=C(OCCS(=O)(=O)c1cc[n+]([O-])c2cc(Cl)ccc12)c1ccc(C(F)(F)F)cc1` [Compound 72, 2-[(N-Oxide 7-chloroquinolin-4-yl)sulfonyl]ethyl-4-(trifluoromethyl)benzoate], the “DNA Synthesis (% positive of cells)” value with CCRF-CEM lymphoblasts [1] amounted to 4.35%. Besides, in the test with CCRF-CEM lymphoblasts [2] (1 × IC50 (first value of cell)), the “>G2/M, % of Total Cellular Populations” value stood at 8.35%; the “G0/G1, % of Total Cellular Populations” value amounted to 47.22%; the “G2/M, % of Total Cellular Populations” value was found to be 18.46%; the “S, % of Total Cellular Populations” value worked out at 34.32%. Further, in the test with CCRF-CEM lymphoblasts [2] (1 × IC50 (first value of cell)), the “Sub-G1 Apoptosis, %” value is reported as 4.05%. Moreover, in the test on CCRF-CEM lymphoblasts [2] (setting [3]), the “>G2/M, % of Total Cellular Populations” value is 13.12%; the “G0/G1, % of Total Cellular Populations” value is reported as 31.36%; the “G2/M, % of Total Cellular Populations” value stood at 21.98%; the “S, % of Total Cellular Populations” value is 46.65%. Moreover, the “Sub-G1 Apoptosis, %” value in the test on CCRF-CEM lymphoblasts [2] (setting [3]) is 10.12%.
